Reference: US9271962B2 (NORTHEASTERN UNIVERSITY, priority 2008, dated 2016)
Read-outs that look alike come from different tables or passages of the source.

Experiments:
ΔTM rFAAH = biological target: T1, ΔTM rFAAH (Rattus norvegicus, UniProt P97612); experiment: Fluorescent enzyme assay, FAAH (AAMCA hydrolysis); type: biochemical; settings: for inhibition at 0.01 µM: 10 nM inhibitor; for inhibition at 0.01 µM / inhibition at 1 µM / IC50: AAMCA substrate; for inhibition at 0.01 µM / inhibition at 1 µM: screening assay; for inhibition at 1 µM: 1000 nM inhibitor; for IC50: eight-point dose response
T1 construct: 15 ug of ΔTM rFAAH (cell lysate obtained by recombinant procedure); made in house
T1 sequence (P97612 30-579 limits assumed): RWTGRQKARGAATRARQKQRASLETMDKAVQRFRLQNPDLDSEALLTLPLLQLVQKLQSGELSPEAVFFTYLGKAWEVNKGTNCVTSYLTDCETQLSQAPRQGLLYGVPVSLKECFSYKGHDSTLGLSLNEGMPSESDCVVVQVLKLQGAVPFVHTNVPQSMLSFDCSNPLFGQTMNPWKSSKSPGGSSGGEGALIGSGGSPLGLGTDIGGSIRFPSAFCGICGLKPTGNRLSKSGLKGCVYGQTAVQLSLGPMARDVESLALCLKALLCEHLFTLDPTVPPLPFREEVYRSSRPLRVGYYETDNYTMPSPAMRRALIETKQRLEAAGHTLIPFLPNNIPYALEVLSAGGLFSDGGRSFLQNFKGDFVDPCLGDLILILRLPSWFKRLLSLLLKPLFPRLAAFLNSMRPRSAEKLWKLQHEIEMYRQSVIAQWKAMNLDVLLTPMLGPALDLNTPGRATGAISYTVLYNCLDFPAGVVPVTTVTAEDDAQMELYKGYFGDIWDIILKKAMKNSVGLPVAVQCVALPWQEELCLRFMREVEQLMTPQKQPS
Description: (§1) Some analogs were tested for their FAAH/MGL inhibitory activity, which is expressed as % of inhibition (Tables 2, 3, and 4 below). The percentage of inhibition results from three-point assay (three concentrations of inhibitor are used) and it is less accurate (preliminary screening) than the IC50/Ki values that are determined from eight-point assay (eight different concentrations of inhibitor were used). The percentage of inhibition describes the percentage by which the inhibitor reduces the velocity/rate of AAMCA (arachidonoyl-7-amino-4-methylcoumarin amide) or AHMMCE (arachidonoyl-7-hydroxy-6-methoxy-4-methylcoumarin ester) hydrolysis by FAAH or MGL respectively. The IC50 is the concentration of the inhibitor, which results in 50% inhibition of the velocity/rate of AAMCA (arachidonoyl 7-amino-4-methylcoumarin amide) hydrolysis by FAAH or AHMMCE (Arachidonoyl, 7-hydroxy-6-methoxy-4-methylcoumarin ester) hydrolysis by MGL. The Ki value is the affinity constant and describes the ability of the compounds to inhibit the function of FAAH or MGL. The lower the IC50/Ki values, the higher the affinity of the inhibitor for the enzyme and the higher its inhibitory activity. A detailed description of the methods used to test inhibitory activity of compounds is given below.
The enzyme (FAAH and MGL) assays were performed in 96 well plates (Coster #3650) in a total volume of 200 uL. Fluorogenic substrate AAMCA (arachidonoyl 7-amino-4-methylcoumarin amide) for FAAH and AHMMCE (arachidonoyl 7-hydroxy-6-methoxy-4-methylcoumarin ester) for MGL were used using BioTek Synergy HT Microplate Reader. Compounds and substrates were dissolved in DMSO provide a 10 mM stock solution and kept as a stock solution at −20° C. until used for assay. Stock solutions were thawed and reconstituted in 50:50 DMSO/assay buffer to a final DMSO concentration per well below 8%. This ensures that the compounds and substrate are in solution during assay. […] Appropriate substrate was added to adjust the final concentration in each well to 20 uM for FAAH (2× Km) and 10 uM for MGL (1×KM). Fluorescence readings were performed at λex=360/λem=460 for 4 h using Kinetic assay protocol at every 20 min (the fluorescent product coumarin produced is quantitated by this procedure). The readings at 3 h for FAAH and 2 h for MGL (linear maximum hydrolysis kinetics of enzyme on substrate) were used to calculate percent inhibition based on controls. Compounds which had more than 50 percent inhibition at 10 uM were selected for dose response study to determine IC50 values. The dose response at 8 concentration points was performed as with the screening assay except that compounds were serially diluted to 8 concentration points which were chosen based on IC50 value, which were calculated from the screening assay results. Assays are run twice in triplicates and Graphpad Prism software is used to plot inhibition data to obtain IC50 values.

hMGL = biological target: T2, hMGL (Homo sapiens, UniProt Q99685); experiment: Fluorescent enzyme assay, MGL (AHMMCE hydrolysis); type: biochemical; settings: for inhibition at 1 µM: 1000 nM inhibitor; for inhibition at 0.01 µM: read-out: % Inhibition of Enzyme by inhibitor, MGL, 10 nM
T2 construct: A full-length cDNA clone of the human MGL transcript variant 1; made in house; host or cells: E. coli BL21 (DE3)
T2 sequence (Q99685 2-303 limits assumed): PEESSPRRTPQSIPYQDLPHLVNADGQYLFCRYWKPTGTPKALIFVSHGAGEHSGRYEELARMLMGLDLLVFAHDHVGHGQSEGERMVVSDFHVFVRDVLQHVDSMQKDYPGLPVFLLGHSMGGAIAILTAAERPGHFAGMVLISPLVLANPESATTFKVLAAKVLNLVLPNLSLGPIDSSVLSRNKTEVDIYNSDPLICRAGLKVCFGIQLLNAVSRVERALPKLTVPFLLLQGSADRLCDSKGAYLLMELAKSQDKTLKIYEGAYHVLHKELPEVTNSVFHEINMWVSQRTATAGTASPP
Description: as §1
A full-length cDNA clone of the human MGL transcript variant 1 (gi: 51242951) was obtained from OriGene Technologies (Rockville, Md.). The coding part of the MGL sequence (except the translation initiation codon ATG) was amplified by a polymerase chain reaction (PCR) using forward […] and reverse […] primers containing PmlI and SacI restriction enzyme recognition sites, respectively. iProof high-fidelity DNA polymerase (Bio-Rad, Hercules, Calif.) was used in the PCR amplification with 33 cycles, each consisting of denaturation at 94° C. for 10 s, annealing at 55° C. for 33 s, and extension at 72° C. for 1 min. The PCR product and pET45b vector were digested with PmlI and SacI restriction enzymes, and the vector was dephosphorylated with CIP followed by in-gel purification using the MinElute Gel Extraction Kit (Qiagen Corp., Valencia, Calif.). The fragment was inserted into the vector directly downstream after the 6 histidine and valine codons, generating the construct pET45His6hMGL for expression of hMGL containing an N-terminal His6-tag. GC10 E. coli cells were used for DNA transformation and plasmid propagation. Mini- and midi-scale plasmid DNA preparations were performed using a GenElute Plasmid Miniprep Kit (Sigma) and PureYield Plasmid Midiprep System (Promega, Madison, Wis.), respectively. In-frame vector-fragment junctions and the coding sequence of the recombinant gene were confirmed by sequencing. The pET45His6hMGL construct was transformed into BL21 (DE3) and Origami (DE3) E. coli expression strains (Novagen, Madison, Wis.).
A single E. coli BL21 (DE3) colony containing the pET45His6hMGL plasmid was inoculated into 12 mL of Luria broth-ampicillin medium and grown overnight with shaking (250 rpm) at 37° C. The next morning, 10 mL of this culture was inoculated into 1 L of fresh Luria broth-ampicillin and allowed to grow until culture turbidity reached an (OD)600 of 0.6-0.8, at which time expression from the T7 promoter was induced by adding isopropyl-β-D-thio-galactopyranoside (1 mM). After 5 h induction, the cells were harvested by centrifugation at 5,000 g for 10 min at 4° C., washed with PBS, and held at −80° C. Five grams (wet-weight) of cells were resuspended in 50 mL lysis buffer (100 mM NaCl; 50 mM Tris, pH 8.0) supplemented with Triton X-100 (0.5%), lysozyme (0.2 mg/mL), and DNase I (25 μg/ml) and disrupted on ice by three, one-min sonication cycles, each consisting of 1-sec sonication bursts at 50 W power separated from each other by a 2-sec interval (Vibra-Cell 500 W, Sonics, Newtown, Conn.). The cell lysate was centrifuged at 10,000 g for 30 min at 4° C. […]

[1] = tested on: rats (KA-induced seizures); experiment: KA-induced seizures in rats, seizure scoring for 4 h; type: in vivo; settings: 5 mg/kg injected immediately after 10 mg/kg KA; 4-h rating period
Description: These compounds were tested in vivo. Seizures were initiated in rats by injection with 10 mg/kg of KA (insult).

[2] = AHMMCE substrate, screening assay
[3] = 10 nM inhibitor, AHMMCE substrate, screening assay
[4] = 100 uM inhibitor, printed in the 1000 nM column

Structure (SMILES) | inhibition at 0.01 µM (ΔTM rFAAH) | inhibition at 1 µM (ΔTM rFAAH) | inhibition at 1 µM (hMGL; [2]) | inhibition at 0.01 µM (hMGL; [3]) | also measured
CN(CCCCCl)C(=O)n1cnc(-c2ccccc2)c1 [Compound 47, N-(4-chlorobutyl)-N-methyl-4-phenyl-1H-imidazole-1-carboxamide] | 12% | 90% | 15% | – | IC50 (ΔTM rFAAH): 78 nM
CN(CCCCN=C=S)C(=O)n1cnc(-c2ccccc2)c1 [Compound 49, N-(4-isothiocyanatobutyl)-N-methyl-4-phenyl-1H-imidazole-1-carboxamide] | 25% | 90% | 7% | – | IC50 (ΔTM rFAAH): 42 nM
CN(C)C(=O)n1cnc2ncncc21 [Compound 60, N,N-dimethyl-7H-purine-7-carboxamide] | – | 96% | 86% | – | –
CN(C)C(=O)N1C=NC2C(N=CN2C(=O)N(C)C)C1=O (stereo not drawn) [Compound 62, N^1,N^1,N^9,N^9-tetramethyl-6-oxo-5,6-dihydro-4H-purine-1,9-dicarboxamide] | – | 99% | 83% | – | –
C#CCc1nnnn1C(=O)N(C)C [Compound 2, N,N-dimethyl-5-prop-2-yn-1-yl-1H-tetrazole-1-carboxamide] | – | 90% | 35% | – | KA-induced seizure severity [1]: reduce KA-induced seizure severity
CN(C)C(=O)n1nnc(Cc2cccc3ccccc23)n1 [Compound 50, N,N-dimethyl-5-(naphthalen-1-ylmethyl)-2H-tetrazole-2-carboxamide] | – | – | – | – | inhibition at 100 µM (ΔTM rFAAH; [4]): 85%; inhibition at 100 µM (hMGL; [4]): 42%
CN(C)C(=O)Oc1ccc(Cc2nnn(C(=O)N(C)C)n2)cc1 [Compound 36a, 4((2-(dimethylcarbamoyl)-2H-tetrazol-5-yl)methyl)phenyl dimethylcarbamate] | 80% | – | – | – | inhibition at 0.01 µM (hMGL): 92%
CN(C)C(=O)n1nnnc1CC(=O)c1ccccc1 [Compound 4, N,N-dimethyl-5-(2-oxo-2-phenylethyl)-1H-tetrazole-1-carboxamide] | 100% | – | – | 90% | –
O=C(N(c1ccccc1)c1ccccc1)n1nnc(Cc2ccc(Cl)cc2Cl)n1 [Compound 8a, 5-(2,4-dichlorobenzyl)-N,N-diphenyl-2H-tetrazole-2-carboxamide] | – | 66% | 100% | – | IC50 (ΔTM rFAAH): 1300 nM; IC50 (hMGL; eight-point dose response, AHMMCE substrate): 40 nM
O=C(N1CCOCC1)n1nnc(Cc2ccc(Cl)cc2Cl)n1 [Compound 6, 4-{[5-(2,4-dichlorobenzyl)-tetrazol-2-yl]carbonyl}morpholine] | 94% | – | – | 88% | –
CCN(CC)C(=O)n1nnc(Cc2ccc(Cl)cc2Cl)n1 [Compound 9, 5-(2,4-dichlorobenzyl)-N,N-diethyl-tetrazole-2-carboxamide] | 95% | – | – | 43% | –

Continued, in another order:

inhibition at 0.01 µM (ΔTM rFAAH) | inhibition at 1 µM (ΔTM rFAAH) | inhibition at 1 µM (hMGL; [2]) | inhibition at 0.01 µM (hMGL; [3]) | Structure (SMILES) | also measured
92% | – | – | 98% | CN(C)C(=O)n1nnc(Cc2ccc(Br)cc2)n1 [Compound 16a, 5-(4-bromobenzyl)-N,N-dimethyl-2H-tetrazole-2-carboxamide] | –
51% | – | – | 13% | CN(C)C(=O)n1cnnn1 [Compound 1b] | –
89% | – | – | 60% | CSc1ccc(Cc2nnnn2C(=O)N(C)C)cc1 [Compound 23b] | –
91% | – | – | 76% | CN(C)C(=O)n1nnnc1Cc1ccc(OC(F)(F)F)cc1 [Compound 19b] | –
97% | – | – | 92% | CN(C)C(=O)n1nnnc1-c1cc2ccccc2[nH]1 [Compound 3b, 5-(1H-indol-2-yl)-N,N-dimethyl-2H-tetrazole-1-carboxamide] | –
